Article PMC3222648, “Inotropic Action of the Puberty Hormone Kisspeptin in Rat, Mouse and Human: Cardiovascular Distribution and Characteristics of the Kisspeptin Receptor” (PLoS ONE, 2011)
“Also recorded” adds a separate entry of the source. Where no end group is shown, it is not given here.

What was measured:
[1] = tested on: endothelium-denuded rat aortic rings; assay: Vasoconstrictor activity in endothelium-denuded rat aorta; details: mean ± SEM, ET-1 n = 7, KP-10 tissues from 4 animals, KP-54 tissues from 3 animals
Description: Rat thoracic aorta was cleaned of connective tissue and cut into 4 mm rings and the endothelial layer removed by gentle rubbing. Tissues were set to a basal tension at which the maximum response to 100 mM KCl was generated and subsequent responses to kisspeptins were expressed as % of this KCl response. Aortic rings were then contracted with 10 µM phenylephrine and 1 µM ACh was added; a reduction in the phenylephrine response of <10% was taken as evidence of removal of endothelium. […] Experiments were terminated by the addition of 100 mM KCl and agonist responses were expressed as a % of this KCl maximum.
(§1) Radioligand binding study data were analyzed using the iterative, non-linear curve fitting programs EBDA and LIGAND in the KELL package (Biosoft, Cambridge, UK). Pooled KD, BMAX and Hill slopes (nH) were expressed as mean±SEM and normalized to protein concentrations. In vitro pharmacology data agonist responses were expressed as %CaCl2 response in the paced atrial tissues and %KCl in the vasoconstrictor studies and data were fitted to a four parameter logistic equation using an iterative curve-fitting program (FigSys, Biosoft, Cambridge, UK) to obtain values for potency (pD2: the negative logarithm to the base 10 of the EC50) and maximum response (EMAX: %CaCl2 or %KCl, respectively) expressed as mean±SEM. Where appropriate, values were compared by one-way analysis of variance (ANOVA). In all cases P<0.05 was considered statistically significant and n-values were the number of animals or patients from which data were obtained.

kisspeptin receptor [2] = target: T1, kisspeptin receptor (Mus musculus, UniProt Q91V45); assay: Inotropic activity in mouse paced atria, wild type (Kiss1r ^+/+); details: % of CaCl2 maximum (8.95 mM final), mean ± SEM, n = 6, read-out: Emax (maximum positive inotropic response)
T1 construct: Paired rat or mouse atria; from tissue; host or cells: mouse paired atria, wild type
T1 sequence (Q91V45 whole entry): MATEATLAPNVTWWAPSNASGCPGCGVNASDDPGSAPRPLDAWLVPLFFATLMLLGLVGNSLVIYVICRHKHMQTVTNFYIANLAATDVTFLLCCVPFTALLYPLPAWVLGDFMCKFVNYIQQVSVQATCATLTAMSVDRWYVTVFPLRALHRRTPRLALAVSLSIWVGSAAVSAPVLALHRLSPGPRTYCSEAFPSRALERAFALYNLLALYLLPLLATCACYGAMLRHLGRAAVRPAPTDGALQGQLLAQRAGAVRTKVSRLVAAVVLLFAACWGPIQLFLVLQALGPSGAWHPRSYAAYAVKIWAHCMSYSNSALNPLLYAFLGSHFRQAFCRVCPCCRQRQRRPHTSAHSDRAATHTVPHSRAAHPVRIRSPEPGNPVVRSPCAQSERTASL
Description: (§2) Paired rat or mouse atria, or 4 mm strips of human atrial appendage, were mounted in 10 ml organ baths containing oxygenated Krebs solution at 37°C as described previously. Tension on the tissue was adjusted to 50% of that at which the maximum force was generated and then paced at 1 Hz, square-wave pulse, 5 ms duration, with the voltage just above threshold (<4.0 V). […] Experiments were terminated by the addition of 6.7 mM CaCl2 (final bath concentration 8.95 mM) and responses expressed as a % of this CaCl2 maximum.
as §1, with “In all cases P<0.05 was considered statistically significant and n-values were the number of animals or patients from which data were obtained.” left out

kisspeptin receptor [3] = target: T2, kisspeptin receptor (Homo sapiens, UniProt Q969F8); assay: Inotropic activity in human paced atrial strips; details: human atrial strips
T2 construct: cryostat-cut sections of human (15 µm) or rat (10 µm) heart; from tissue; host or cells: human right atria (control, dilated cardiomyopathy, ischaemic heart disease), cryostat sections
T2 sequence (Q969F8 whole entry): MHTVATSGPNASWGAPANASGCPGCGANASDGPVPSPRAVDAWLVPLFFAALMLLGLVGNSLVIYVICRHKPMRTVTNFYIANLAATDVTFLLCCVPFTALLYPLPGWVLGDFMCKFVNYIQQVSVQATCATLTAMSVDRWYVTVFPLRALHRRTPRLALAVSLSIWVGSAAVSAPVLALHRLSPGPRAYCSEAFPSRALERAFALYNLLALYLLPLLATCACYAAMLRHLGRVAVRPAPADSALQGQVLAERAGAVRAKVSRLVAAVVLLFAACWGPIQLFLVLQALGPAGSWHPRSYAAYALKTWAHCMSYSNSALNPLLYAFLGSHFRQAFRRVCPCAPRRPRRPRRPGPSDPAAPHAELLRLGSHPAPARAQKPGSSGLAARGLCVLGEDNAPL
Description: (§3) Paired rat or mouse atria, or 4 mm strips of human atrial appendage, were mounted in 10 ml organ baths containing oxygenated Krebs solution at 37°C as described previously. […] Experiments were terminated by the addition of 6.7 mM CaCl2 (final bath concentration 8.95 mM) and responses expressed as a % of this CaCl2 maximum. Radioligand binding study data were analyzed using the iterative, non-linear curve fitting programs EBDA and LIGAND in the KELL package (Biosoft, Cambridge, UK). Pooled KD, BMAX and Hill slopes (nH) were expressed as mean±SEM and normalized to protein concentrations. […] Where appropriate, values were compared by one-way analysis of variance (ANOVA). In all cases P<0.05 was considered statistically significant and n-values were the number of animals or patients from which data were obtained.

Kiss1r ^−/− atria = assay: Inotropic activity in atria of mice with targeted disruption of Kiss1r; design: species or system mouse
Description: as §2
as §1, with “In all cases P<0.05 was considered statistically significant and n-values were the number of animals or patients from which data were obtained.” left out

[4] = ref [47]; cited from earlier work
kisspeptin receptor [5] = target: kisspeptin receptor (Rattus norvegicus, UniProt Q924U1); assay: Inotropic activity in rat paced paired atria; design: Paired rat or mouse atria; from tissue; host or cells: rat paired atria
Chain of kisspeptin receptor (Rattus norvegicus, UniProt Q924U1) (Q924U1 whole entry): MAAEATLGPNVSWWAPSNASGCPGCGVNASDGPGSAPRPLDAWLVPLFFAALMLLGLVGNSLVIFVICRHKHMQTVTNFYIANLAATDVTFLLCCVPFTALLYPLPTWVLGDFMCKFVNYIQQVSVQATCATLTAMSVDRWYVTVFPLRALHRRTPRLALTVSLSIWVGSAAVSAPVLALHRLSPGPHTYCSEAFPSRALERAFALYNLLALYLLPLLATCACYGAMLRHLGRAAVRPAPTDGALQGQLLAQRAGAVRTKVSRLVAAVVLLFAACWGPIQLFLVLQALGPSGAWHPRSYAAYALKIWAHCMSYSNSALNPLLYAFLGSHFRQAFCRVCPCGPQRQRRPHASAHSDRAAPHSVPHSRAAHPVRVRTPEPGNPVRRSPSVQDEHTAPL
Description: as §3

[6] = tested on: human coronary artery and umbilical vein; details: ref [31]; cited from earlier work
Excerpt: We have recently identified a further role for kisspeptin as a vasoactive peptide. We detected kisspeptin and kisspeptin receptor expression in human vasculature, and intriguingly found this to be restricted to the aorta, coronary artery and umbilical vein, vessels with the same developmental origin. […] However, to our knowledge, a cardiac role of kisspeptin has not yet been investigated in man, nor any cardiovascular effects ...

Row | Emax (kisspeptin receptor [2]) [%] | Emax (kisspeptin receptor [3]; % of CaCl2 maximum (8.95 mM final), mean ± SEM, n = 5, read-out: EMAX (maximum positive inotropic response)) [%] | lusitropic effects (kisspeptin receptor [3]; half time to peak force and half time to relaxation) | lusitropic effects (kisspeptin receptor [5]; rat atria, half time to peak force and half time to relaxation) | Emax (kisspeptin receptor [5]; read-out: EMAX (maximum positive inotropic response)) [%] | Compound | EMAX (maximum vasoconstrictor response) ([1]; % of 100 mM KCl maximum, endothelium-denuded rat aorta) [% KCl] | pD2 (vasoconstriction) ([1]; endothelium-denuded rat thoracic aortic rings, KP-10, KP-54 10^−12–3×10^−9 M, ET-1 10^−10–3×10^−7 M) | inotropic response in Kiss1r ^−/− atria (Kiss1r ^−/− atria) | anti-angiogenic activity [4] | vasoconstrictor activity [6]
1 | 26 ± 4 | 82 ± 13 | Lusitropic effects were not observed | Lusitropic effects were not observed | 14 ± 2 | CC[C@H](C)[C@H](NC(=O)[C@H](CCC(N)=O)NC(=O)[C@H](CCCNC(=N)N)NC(=O)[C@H](CO)NC(=O)[C@H](Cc1c[nH]cn1)NC(=O)[C@@H]1CCCN1C(=O)[C@H](C)NC(=O)[C@H](CO)NC(=O)[C@H](CC(C)C)NC(=O)CNC(=O)[C@@H]1CCCN1C(=O)[C@H](CCC(N)=O)NC(=O)[C@H](CCC(N)=O)NC(=O)[C@H](CCCNC(=N)N)NC(=O)[C@H](CO)NC(=O)CNC(=O)[C@H](CO)NC(=O)[C@H](CO)NC(=O)[C@H](CCC(=O)O)NC(=O)[C@@H]1CCCN1C(=O)[C@@H]1CCCN1C(=O)[C@@H]1CCCN1C(=O)[C@H](CO)NC(=O)[C@H](CC(C)C)NC(=O)[C@H](CO)NC(=O)[C@@H](NC(=O)CN)[C@@H](C)O)C(=O)N1CCC[C@H]1C(=O)N[C@@H](C)C(=O)N1CCC[C@H]1C(=O)N[C@@H](CCC(N)=O)C(=O)NCC(=O)N[C@@H](C)C(=O)N[C@H](C(=O)N[C@@H](CC(C)C)C(=O)N[C@H](C(=O)N[C@@H](CCC(N)=O)C(=O)N[C@@H](CCCNC(=N)N)C(=O)N[C@@H](CCC(=O)O)C(=O)N[C@@H](CCCCN)C(=O)N[C@@H](CC(=O)O)C(=O)N[C@@H](CC(C)C)C(=O)N1CCC[C@H]1C(=O)N[C@@H](CC(N)=O)C(=O)N[C@@H](Cc1ccc(O)cc1)C(=O)N[C@@H](CC(N)=O)C(=O)N[C@@H](Cc1c[nH]c2ccccc12)C(=O)N[C@@H](CC(N)=O)C(=O)N[C@@H](CO)C(=O)N[C@@H](Cc1ccccc1)C(=O)NCC(=O)N[C@@H](CC(C)C)C(=O)N[C@@H](CCCNC(=N)N)C(=O)N[C@@H](Cc1ccccc1)C(N)=O)C(C)C)C(C)C [KP-54] | 97±1 | 10.47±0.26 | lack of effect; also recorded: no inotropic response | anti-angiogenic | 
2 |  |  |  |  |  | kisspeptin: Kisspeptin, or KP-54; also used generically for the endogenous peptides and kisspeptin-like immunoreactivity (GTSLSPPPESSGSPQQPGLSAPHSRQIPAPQGAVLVQREKDLPNYNWNSFGLRF; ends and bridges not checked; UniProt Q15726 68-121, looked up) |  |  | No response |  | potent vasoconstrictor
